# Measurements taken from patent EP3789378A1, “PIPERIDINES OR PIPERIDONES SUBSTITUTED WITH UREA AND HETEROARYL” (Grünenthal GmbH, priority 2019, dated 2021).
# Structures can show the parent of a compound that is named as a salt.
# Biological target: T1, h FPR2 (Homo sapiens, UniProt P25090)
# T1 construct: expressed in transfected cells
# T1 sequence (P25090 1-351): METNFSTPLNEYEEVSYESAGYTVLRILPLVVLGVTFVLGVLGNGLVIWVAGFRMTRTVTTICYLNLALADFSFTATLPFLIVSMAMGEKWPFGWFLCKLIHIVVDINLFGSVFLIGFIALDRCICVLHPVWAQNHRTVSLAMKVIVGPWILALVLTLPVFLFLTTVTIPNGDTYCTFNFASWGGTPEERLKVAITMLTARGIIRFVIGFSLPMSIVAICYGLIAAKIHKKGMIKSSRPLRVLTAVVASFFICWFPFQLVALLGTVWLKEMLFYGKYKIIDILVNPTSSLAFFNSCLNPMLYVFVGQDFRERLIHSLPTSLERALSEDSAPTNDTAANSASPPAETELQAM
# Assay: Agonistic activity in hFPR2-Aq-CHO cells (FLIPR Calcium 5 fluorescence assay)
# Assay type: cell-based
# Conditions: 11 point half log dilution, final assay concentration from 10µM
# In short: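 hFPR2-Aq-CHO cells were loaded with Calcium 5 dye for 30 min at 37 °C and equilibrated 10 min at room temperature. Compound (11 points, 10 µM to 100 pM final) was added in HBSS/HEPES/probenecid buffer pH 7.4. Fluorescence rise over basal across 5 min, relative to no-compound wells, gave EC50.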
row,Structure (SMILES),EC50 [nM]
1,"Cc1cc(NC(=O)N[C@@H]2CCN(Cc3cc(C)on3)C[C@H]2c2ccc(Cl)s2)sn1 (single isomer, unassigned) [Ex-49, trans-1-[3-(5-chlorothiophen-2-yl)-1-[(5-methyl-1,2-oxazol-3-yl)methyl]piperidin-4-yl]-3-(3-methyl-1,2-thiazol-5-yl)urea]",0.3
2,"COc1ccc([C@@H]2CN(CC3CCOCC3)CC[C@H]2NC(=O)Nc2ccc(Cl)cc2)nc1 (single isomer, unassigned) [Ex-51, trans-1-(4-chlorophenyl)-3-[3-(5-methoxypyridin-2-yl)-1-(oxan-4-ylmethyl)piperidin-4-yl]urea]",0.4
3,"COc1ccc([C@@H]2CN(C(=O)c3cnccc3C)CC[C@H]2NC(=O)Nc2ccc(Cl)cc2)nc1 (single isomer, unassigned) [Ex-52, trans-1-(4-chlorophenyl)-3-[3-(5-methoxypyridin-2-yl)-1-[(4-methylpyridin-3-yl)carbonyl]piperidin-4-yl]urea]",0.5
4,"COc1ccc([C@@H]2CN(C(=O)c3cnccc3C)CC[C@H]2NC(=O)Nc2ccc(Cl)cc2)nc1 (single isomer, unassigned) [Ex-53, trans-1-(4-chlorophenyl)-3-[3-(5-methoxypyridin-2-yl)-1-[(4-methylpyridin-3-yl)carbonyl]piperidin-4-yl]urea]",50
5,"COc1ccc([C@@H]2CN(C(=O)c3ccc(C)nc3)CC[C@H]2NC(=O)Nc2ccc(Cl)cc2)nc1 (single isomer, unassigned) [Ex-54, trans-1-(4-chlorophenyl)-3-[3-(5-methoxypyridin-2-yl)-1-[(6-methylpyridin-3-yl)carbonyl]piperidin-4-yl]urea]",0.6
6,"COc1ccc([C@@H]2CN(C(=O)c3ccc(C)nc3)CC[C@H]2NC(=O)Nc2ccc(Cl)cc2)nc1 (single isomer, unassigned) [Ex-55, trans-1-(4-chlorophenyl)-3-[3-(5-methoxypyridin-2-yl)-1-[(6-methylpyridin-3-yl)carbonyl]piperidin-4-yl]urea]",40
7,"CS(=O)(=O)n1ccc(CN2CC[C@@H](NC(=O)Nc3ccccc3)[C@H](c3ccc(Cl)s3)C2)n1 (single isomer, unassigned) [Ex-56, trans-1-(-3-(5-chlorothiophen-2-yl)-1-((1-(methylsulfonyl)-1H-pyrazol-3-yl)methyl)piperidin-4-yl)-3-phenylurea]",0.9
8,"CS(=O)(=O)n1ccc(CN2CC[C@@H](NC(=O)Nc3ccccc3)[C@H](c3ccc(Cl)s3)C2)n1 (single isomer, unassigned) [Ex-57, trans-1-(-3-(5-chlorothiophen-2-yl)-1-((1-(methylsulfonyl)-1H-pyrazol-3-yl)methyl)piperidin-4-yl)-3-phenylurea]",55
9,"COc1ccc([C@@H]2CN(Cc3ccn(S(C)(=O)=O)n3)CC[C@H]2NC(=O)Nc2ccccc2)nc1 (single isomer, unassigned) [Ex-58, trans-3-[1-[(1-methanesulfonyl-1H-pyrazol-3-yl)methyl]-3-(5-methoxypyridin-2-yl)piperidin-4-yl]-1-phenylurea]",0.4
10,"Cc1cc(NC(=O)N[C@@H]2CCN(Cc3ncccn3)C[C@H]2c2ccc(Cl)s2)sn1 (single isomer, unassigned) [Ex-62, trans-1-[3-(5-chlorothiophen-2-yl)-1-(pyrimidin-2-ylmethyl)piperidin-4-yl]-3-(3-methyl-1,2-thiazol-5-yl)urea]",0.2
11,"CS(=O)(=O)n1ccc(CN2CC[C@@H](NC(=O)Nc3ccc(Cl)cc3)[C@H](c3ccc(Cl)s3)C2)n1 (single isomer, unassigned) [Ex-77, trans-1-(4-chlorophenyl)-3-[3-(5-chlorothiophen-2-yl)-1-[(1-methanesulfonyl-1H-pyrazol-3-yl)methyl]piperidin-4-yl]urea]",0.06
12,"CS(=O)(=O)n1ccc(CN2CC[C@@H](NC(=O)Nc3ccc(Cl)cc3)[C@H](c3ccc(Cl)s3)C2)n1 (single isomer, unassigned) [Ex-78, trans-1-(4-chlorophenyl)-3-[3-(5-chlorothiophen-2-yl)-1-[(1-methanesulfonyl-1H-pyrazol-3-yl)methyl]piperidin-4-yl]urea]",52
13,"COc1ccc([C@@H]2CN(CC3CCNCC3)CC[C@H]2NC(=O)Nc2ccc(Cl)cc2)nc1 (single isomer, unassigned) [Ex-82, trans-1-(4-chlorophenyl)-3-(3-(5-methoxypyridin-2-yl)-1-(piperidin-4-ylmethyl)piperidin-4-yl)urea]",37
14,"O=C(Nc1ccc(Cl)cc1)N[C@@H]1CCN(CC2CCNCC2)C[C@H]1c1ccc(Cl)s1 (single isomer, unassigned) [Ex-83, trans-1-(4-chlorophenyl)-3-[3-(5-chlorothiophen-2-yl)-1-(piperidin-4-ylmethyl)piperidin-4-yl]urea dihydrochloride]",0.2
15,"O=C(Nc1ccc(Cl)cc1)N[C@@H]1CCN(CC2CCNCC2)C[C@H]1c1ccc(Cl)s1 (single isomer, unassigned) [Ex-84, trans-1-(4-chlorophenyl)-3-[3-(5-chlorothiophen-2-yl)-1-(piperidin-4-ylmethyl)piperidin-4-yl]urea dihydrochloride]",33
16,"O=C(Nc1ccc(Cl)cc1)N[C@@H]1CCN(CC2CCOCC2)C[C@H]1c1ccc(Cl)s1 (single isomer, unassigned) [Ex-85, trans-1-(4-chlorophenyl)-3-(3-(5-chlorothiophen-2-yl)-1-((tetrahydro-2H-pyran-4-yl)methyl)piperidin-4-yl)urea]",14
17,"COc1ccc([C@@H]2CN(C(=O)c3cnccc3C(F)(F)F)CC[C@H]2NC(=O)Nc2ccc(Cl)cc2)nc1 (single isomer, unassigned) [Ex-99, trans-1-(4-chlorophenyl)-3-[3-(5-methoxypyridin-2-yl)-1-{[4-(trifluoromethyl)pyridin-3-yl]carbonyl}piperidin-4-yl]urea]",0.4
18,"COc1ccc([C@@H]2CN(C(=O)c3ccc(C(F)(F)F)nc3)CC[C@H]2NC(=O)Nc2ccc(Cl)cc2)nc1 (single isomer, unassigned) [Ex-100, trans-1-(4-chlorophenyl)-3-[3-(5-methoxypyridin-2-yl)-1-{[6-(trifluoromethyl)pyridin-3-yl]carbonyl}piperidin-4-yl]urea]",93
19,"COc1ccc([C@@H]2CN(C(=O)c3ccc(C(F)(F)F)nc3)CC[C@H]2NC(=O)Nc2ccc(Cl)cc2)nc1 (single isomer, unassigned) [Ex-101, trans-1-(4-chlorophenyl)-3-[(5-methoxypyridin-2-yl)-1-{[6-(trifluoromethyl)pyridin-3-yl]carbonyl}piperidin-4-yl]urea]",0.11
20,"COc1ccc([C@@H]2CN(CC3CCNCC3)CC[C@H]2NC(=O)Nc2ccc(Cl)cc2)nc1 (single isomer, unassigned) [Ex-124, trans-1-(4-chlorophenyl)-3-(3-(5-methoxypyridin-2-yl)-1-(piperidin-4-ylmethyl)piperidin-4-yl)urea]",0.03
21,"COc1ccc([C@@H]2CN(C(=O)C3CC(O)C3)CC[C@H]2NC(=O)Nc2cc(C)ns2)nc1 (single isomer, unassigned) [Ex-138, trans-1-[1-(3-Hydroxy-cyclobutanecarbonyl)-3-(5-methoxy-pyridin-2-yl)-piperidin-4-yl]-3-(3-methyl-isothiazol-5-yl)-urea]",7
22,"COc1ccc([C@@H]2CNCC[C@H]2NC(=O)Nc2ccc(Cl)cc2)nc1 (single isomer, unassigned) [Ex-168, trans-1-(4-Chlorophenyl)-3-[3-(5-methoxy-pyridin-2-yl)-piperidin-4-yl]-urea]",0.9
23,"COc1ccc([C@@H]2CN(CC(N)=O)CC[C@H]2NC(=O)Nc2ccc(Cl)cc2)nc1 (single isomer, unassigned) [Ex-170, trans-2-[4-[[(4-Chlorophenyl)-carbamoyl]amino]-3-(5-methoxy-pyridin-2-yl)-piperidin-1-yl]-acetamide]",0.3
24,"COc1ccc([C@@H]2CN(CC3CC3)CC[C@H]2NC(=O)Nc2ccc(Cl)cc2)nc1 (single isomer, unassigned) [Ex-172, trans-1-(4-Chlorophenyl)-3-[1-(cyclopropyl-methyl)-3-(5-methoxy-pyridin-2-yl)-piperidin-4-yl]-urea]",0.18
25,"COc1ccc([C@@H]2CN(CC(F)F)CC[C@H]2NC(=O)Nc2ccc(C#N)cc2)nc1 (single isomer, unassigned) [Ex-174, trans-1-(4-Cyano-phenyl)-3-[1-(2,2-difluoro-ethyl)-3-(5-methoxy-pyridin-2-yl)-piperidin-4-yl]-urea]",1.4
26,"COc1ccc([C@@H]2CN(CC(C)(C)O)CC[C@H]2NC(=O)Nc2cc(C)ns2)nc1 (single isomer, unassigned) [Ex-177, trans-1-[1-(2-Hydroxy-2-methyl-propyl)-3-(5-methoxy-pyridin-2-yl)-piperidin-4-yl]-3-(3-methyl-isothiazol-5-yl)-urea]",1.4
27,"COc1ccc([C@@H]2CN(CC(C)(C)O)CC[C@H]2NC(=O)Nc2ccc(Cl)cc2)nc1 (single isomer, unassigned) [Ex-179, trans-1-(4-Chlorophenyl)-3-[1-(2-hydroxy-2-methyl-propyl)-3-(5-methoxy-pyridin-2-yl)-piperidin-4-yl]-urea]",0.7
28,"COc1ccc([C@@H]2CN(C(=O)C3CC(O)C3)CC[C@H]2NC(=O)Nc2cc(C)ns2)nc1 (single isomer, unassigned) [Ex-183, trans-1-[1'-(3-hydroxy-cyclobutanecarbonyl)-5-methoxy-1',2',3',4',5',6'-hexahydro-[2,3']bipyridinyl-4'-yl]-3-(3-methyl-isothiazol-5-yl)-urea]",89
